# Patent EP0423221B1, “IMMUNOSUPPRESSIVE AGENTS” (THE UNIVERSITY OF SHEFFIELD, priority 1988, dated 1990)
# Assays:
# [1] = system: human mixed lymphocyte reaction; assay: human mixed lymphocyte reaction (inhibition of 3H-thymidine incorporation); format: cell-based; settings: for inhibition at 25 µM: Concentration of Solution 25 µM; for EC50: concentration which brings about 50% inhibition of ^3H-thymidine incorporation, read-out: Immunosuppressive activity ED50; for immunosuppressive activity compared with azathioprine: statement in words; for inhibition at 10 µM: Concentration of Solution 10 µM
# Source text: Fifteen of these compounds were screened for immunosuppressive activity by means of the human mixed lymphocyte reaction, which is well known and need not be further described here, the results of which are shown in Table 1.
# [2] = system: lymphocytes
compound,measurement,setting,value
Cn1cnc([N+](=O)[O-])c1Sc1nc2ccccc2[nH]1 [Compound 1],inhibition at 36 µM,"[1]; Homo sapiens, Lymphocyte, Concentration of Solution 36 µM",98%
Cc1ccc2[nH]c(Sc3c([N+](=O)[O-])ncn3C)nc2c1 [Compound 2],inhibition at 25 µM,"[1]; Homo sapiens, Lymphocyte",86%
Cn1cnc([N+](=O)[O-])c1Sc1nc2cc(F)c(Cl)cc2[nH]1 [Compound 4],inhibition at 50 µM,"[1]; Homo sapiens, Lymphocyte, Concentration of Solution 50 µM",59%
COc1cc2nc(Sc3c([N+](=O)[O-])ncn3C)[nH]c2cc1OC [Compound 5],inhibition at 25 µM,"[1]; Homo sapiens, Lymphocyte",94%
COc1ccc(OC)c2[nH]c(Sc3c([N+](=O)[O-])ncn3C)nc12 [Compound 6],inhibition at 25 µM,"[1]; Homo sapiens, Lymphocyte",41%
Cn1cnc([N+](=O)[O-])c1Sc1nc2ccccc2o1 [Compound 8],inhibition at 25 µM,"[1]; Homo sapiens, Lymphocyte",87%
Cn1cnc([N+](=O)[O-])c1Sc1nc2ccccc2s1 [Compound 9],inhibition at 25 µM,"[1]; Homo sapiens, Lymphocyte",27%
Cn1cnc([N+](=O)[O-])c1Sc1ncnc2[nH]c(O)nc12 [Compound 11],toxicity to lymphocytes compared with azathioprine,[2],much less toxic to the lymphocytes
same,EC50,"[1]; Homo sapiens, Lymphocyte",24 µM
same,immunosuppressive activity compared with azathioprine,[1],less immunosuppressive than azathioprine
Cn1cnc([N+](=O)[O-])c1Sc1ccccc1C(=O)O [Compound 13],inhibition at 25 µM,"[1]; Homo sapiens, Lymphocyte",34%
Cn1cnc([N+](=O)[O-])c1Sc1ccccn1 [Compound 15],inhibition at 25 µM,"[1]; Homo sapiens, Lymphocyte",76%
Cn1cnc([N+](=O)[O-])c1Sc1ncccn1 [Compound 16],inhibition at 25 µM,"[1]; Homo sapiens, Lymphocyte",47%
CCn1c(C)nc([N+](=O)[O-])c1Sc1nc(C)cc(C)n1 [Compound 18],inhibition at 25 µM,"[1]; Homo sapiens, Lymphocyte",47%
Cn1cnc([N+](=O)[O-])c1Sc1nccc(O)n1 [Compound 19],inhibition at 25 µM,"[1]; Homo sapiens, Lymphocyte",29%
Cn1cnc([N+](=O)[O-])c1Sc1ncc[nH]1 [Compound 21],toxicity to lymphocytes compared with azathioprine,[2],considerably less toxic to lymphocytes
same,inhibition at 10 µM,"[1]; Homo sapiens, Lymphocyte",89%
same,EC50,"[1]; Homo sapiens, Lymphocyte",2.8 µM
same,immunosuppressive activity compared with azathioprine,[1],substantially more immunosuppressive than azathioprine
Cn1ccnc1Sc1c([N+](=O)[O-])ncn1C [Compound 22],toxicity to lymphocytes compared with azathioprine,[2],considerably less toxic to lymphocytes
same,inhibition at 10 µM,"[1]; Homo sapiens, Lymphocyte",82%
same,EC50,"[1]; Homo sapiens, Lymphocyte",3.15 µM
same,immunosuppressive activity compared with azathioprine,[1],substantially more immunosuppressive than azathioprine
CCOC(=O)CSc1c([N+](=O)[O-])ncn1C [Compound 30],inhibition at 25 µM,"[1]; Homo sapiens, Lymphocyte",65%
"Cn1cnc([N+](=O)[O-])c1Sc1ncnc2nc[nH]c12 [I (azathioprine), azathioprine, reference compound]",Toxicity LD25,[2]; human,42.5
same,Therapeutic index ED50/LD25,[2]; ratio of toxicity and immunosuppressive activity,5.38
same,inhibition at 25 µM,"[1]; Homo sapiens, Lymphocyte",79%
same,EC50,"[1]; Homo sapiens, Lymphocyte",7.9 µM
